For experiment [1], the system named is mouse striatal cells (Q7). Briefly: Thiosulfate production in EPI-743 treated ATG-stressed Q7 cells. The class given is cell-based. As to conditions: for effect on cysteine levels: Q7 cells, 10 μM ATG or 100 nM EPI-743; for Cysteine Calculated Concentration / Thiosulfate Peak Area: 100 nM 743. As for the experimental part: Conditionally immortalized wild-type mouse striatal cells (Q7, passage #45) were seeded at 300,000 cells per well in 6-well plates containing 3 mL/well of DMEM (High Glucose) containing 10% FBS, penicillin/streptomycin, and 400 μg/mL G418. After an overnight incubation at 33C, the cells were treated for 4-5 hours with either EPI-743 (100 nM final concentration) or DMSO vehicle (1% final concentration). Aurothioglucose (final concentration 10 μM) was added prior to an 18-hour treatment period. Cells were washed 1× with Hanks' buffered saline solution (HBSS), counted, and then resuspended in monobromobimane capping solution.
Cysteine and thiosulfate levels are shown below. Aurothioglucose (ATG) is an inhibitor of thioredoxin reductase-1 and has been repeatedly used as a tool compound to increase oxidative stress. […] Cysteine levels were unaffected by ATG or EPI-743 treatment.

Experiment [2] is described as follows: Plasma thiosulfate in Leigh Syndrome patients treated with EPI-743 (EPI743-12-002 Leigh Trial). The class given is in vivo, human. How it is done:
As part of the Edison EPI743-12-002 Leigh Trial, 17 Leigh Syndrome patients were treated with EPI-743 (15 mg/kg up to 200 mg three times a day) for 12 months. An additional 14 Leigh Syndrome patients received placebo for the first six months, and were randomized to either 5 or 15 mg/kg up to 200 mg three times a day EPI-743 for the subsequent six months.
Plasma thiosulfate concentrations were measured at various time points, over a 12 month period, for patients on drug and placebo. Plasma samples were collected from Leigh Syndrome patients, and the samples processed according to the procedure described in Example 2. […]
(§1) The samples were analyzed by measuring the absolute concentration of H2S, thiosulfate, and glutathione persulfide using 6-point calibration curves. […]
(§2) An API mass spectrometer (AB6500 Qtrap) coupled to a high performance liquid chromatograph (Eksigent MicroLC 200 Plus) was used to quantify H2S, thiosulfate, and glutathione persulfide and their internal standards from all biological fluids and calibrants. […]
Bromobimane (BB) and Bromobimane internal standard (B-IS) were injected before each calibration curve. […] Statistical calculations and analytical run acceptance were determined based on criteria set forth in the FDA/EMA guidance where applicable. Fundamental parameters such as accuracy, precision, selectivity, sensitivity, reproducibility, and stability were monitored.

Experiment [3] deals with SQOR products (thiosulfate, glutathione persulfide). Briefly: Correlation of plasma H2S with the SQOR products thiosulfate and glutathione persulfide in Leigh Syndrome patients. The class given is in vivo, human. As to conditions: all subjects at all time points. As for the experimental part:
A quantitative method for the analysis of H2S, thiosulfate, and glutathione persulfide in biological matrices via liquid chromatography coupled to atmospheric pressure ionization (API) tandem mass spectrometry (LC-MS/MS) is provided.
Patient plasma samples were collected with informed consent from the patients described in Example 1. The sulfur containing compounds were derivatized with bromo bimane to stabilize the samples for measurement. Samples were stored at −80° C. and shipped for analysis to Edison under dry ice.
as §1, §2
Bromobimane (BB) and Bromobimane internal standard (B-IS) were injected before each calibration curve. […] Statistical calculations and analytical run acceptance were determined based on criteria set forth in the FDA/EMA guidance where applicable. Fundamental parameters such as accuracy, precision, selectivity, sensitivity, reproducibility, and stability were monitored. […]

Regarding `OC[C@H]1O[C@H]([S-])[C@H](O)[C@@H](O)[C@@H]1O.[Au+]` [ATG, Aurothioglucose, reference compound], the “effect on cysteine levels” value in experiment [1] is given as “unaffected”.

As for `CC(C)=CCC/C(C)=C/CC/C(C)=C/CC[C@@](C)(O)CCC1=C(C)C(=O)C(C)=C(C)C1=O` [EPI-743], the “increase in mean plasma thiosulfate” value in experiment [2] (Leigh Syndrome patients, across all time points over 12 months, versus baseline, placebo virtually no change) is “greater than 100%”. This molecule came in with a mean plasma thiosulfate in experiment [2] (subjects treated with EPI-743, across all time points, baseline 0.21 μM) of 0.54 µM. For the same molecule, in experiment [3], the “H2S/glutathione persulfide ratio versus untreated patients” value is “lower”. In experiment [3], the “H2S/thiosulfate ratio versus untreated patients” value is “lower”. For the same molecule, the “Cysteine Calculated Concentration” value in experiment [1] (10 μM ATG, 1% DMSO control 0.272) was 0.281 µM; in experiment [1] (No Stress, 1% DMSO control 0.251), 0.264 µM. The “Thiosulfate Peak Area” value in experiment [1] (10 μM ATG, 1% DMSO control 3466) turned out to be 37903; in experiment [1] (No Stress, 1% DMSO control 2881) it was 3656. For the same molecule, the “increase in thiosulfate, EPI-743 treated versus untreated cells” value in experiment [1] (ATG-stressed cells (10 μM ATG), 100 nM EPI-743) is given as “approximately 10 fold”. Moreover, the “effect on cysteine levels” value in experiment [1] is given as “unaffected”.

The values above are taken from US20190029975A1, “TOCOPHEROL AND TOCOTRIENOL QUINONE DERIVATIVES FOR INCREASING THIOSULFATE LEVELS OR DECREASING HYDROGEN SULFIDE LEVELS” (BIOELECTRON TECHNOLOGY CORPORATION, priority 2016, published 2019).
